Results: the kinase profiling compilation of Christmann-Franck et al. (2016)
pIC50: −log10 of the molar value.

Tests used:
PIM1 (human) [1] = molecular target: PIM1 (human) (UniProt P11309); assay: SelectScreen, TR FRET
PIM2 (human) [2] = molecular target: PIM2 (human) (UniProt Q9P1W9); assay: SelectScreen, TR FRET
MYLK3 (human) = MYLK3 (human) (UniProt Q32MK0); assay: KINOMEscan competition binding; conditions: compound 10.0 µM
BMPR1B (human) = BMPR1B (human) (UniProt O00238); assay: KINOMEscan competition binding; conditions: compound 10.0 µM
DAPK1 (human) = DAPK1 (human) (UniProt P53355); assay: KINOMEscan competition binding; conditions: compound 10.0 µM
TAOK3 (human) = TAOK3 (human) (UniProt Q9H2K8); assay: KINOMEscan competition binding; conditions: compound 10.0 µM
PIP4K2B (human) = PIP4K2B (human) (UniProt P78356); assay: KINOMEscan competition binding; conditions: compound 10.0 µM
RPS6KA1 KD2 (human) = RPS6KA1 KD2 (human) (UniProt Q15418); assay: KINOMEscan competition binding; conditions: compound 10.0 µM
PIK3CG (human) = PIK3CG (human) (UniProt P48736); assay: KINOMEscan competition binding; conditions: compound 10.0 µM
TAOK1 (human) = TAOK1 (human) (UniProt Q7L7X3); assay: KINOMEscan competition binding; conditions: compound 10.0 µM
STK17B (human) = STK17B (human) (UniProt O94768); assay: KINOMEscan competition binding; conditions: compound 10.0 µM
PIM1 (human) [3] = molecular target: PIM1 (human) (UniProt P11309); assay: KINOMEscan competition binding; conditions: compound 10.0 µM
CLK3 (human) = CLK3 (human) (UniProt P49761); assay: KINOMEscan competition binding; conditions: compound 10.0 µM
MAP2K2 (human) = MAP2K2 (human) (UniProt P36507); assay: KINOMEscan competition binding; conditions: compound 10.0 µM
CSNK2A1 (human) = CSNK2A1 (human) (UniProt P68400); assay: KINOMEscan competition binding; conditions: compound 10.0 µM
CLK2 (human) = CLK2 (human) (UniProt P49760); assay: KINOMEscan competition binding; conditions: compound 10.0 µM
MKNK2 (human) = MKNK2 (human) (UniProt Q9HBH9); assay: KINOMEscan competition binding; conditions: compound 10.0 µM
MAP2K3 (human) = MAP2K3 (human) (UniProt P46734); assay: KINOMEscan competition binding; conditions: compound 10.0 µM
PIM3 (human) = PIM3 (human) (UniProt Q86V86); assay: KINOMEscan competition binding; conditions: compound 10.0 µM
MAP3K7 (human) = MAP3K7 (human) (UniProt O43318); assay: KINOMEscan competition binding; conditions: compound 10.0 µM
[4] = molecular target: TYK2 JH2 pseudokinase (human) (UniProt P29597); assay: KINOMEscan competition binding; conditions: compound 10.0 µM
PLK4 (human) = PLK4 (human) (UniProt O00444); assay: KINOMEscan competition binding; conditions: compound 10.0 µM
CAMKK1 (human) = CAMKK1 (human) (UniProt Q8N5S9); assay: KINOMEscan competition binding; conditions: compound 10.0 µM
MAPK15 (human) = MAPK15 (human) (UniProt Q8TD08); assay: KINOMEscan competition binding; conditions: compound 10.0 µM
CLK4 (human) = CLK4 (human) (UniProt Q9HAZ1); assay: KINOMEscan competition binding; conditions: compound 10.0 µM
DAPK2 (human) = DAPK2 (human) (UniProt Q9UIK4); assay: KINOMEscan competition binding; conditions: compound 10.0 µM
STK24 (human) = STK24 (human) (UniProt Q9Y6E0); assay: KINOMEscan competition binding; conditions: compound 10.0 µM
TLK1 (human) = TLK1 (human) (UniProt Q9UKI8); assay: KINOMEscan competition binding; conditions: compound 10.0 µM
RIPK4 (human) = RIPK4 (human) (UniProt P57078); assay: KINOMEscan competition binding; conditions: compound 10.0 µM
CDK16 (human) = CDK16 (human) (UniProt Q00536); assay: KINOMEscan competition binding; conditions: compound 10.0 µM
MYLK (human) = MYLK (human) (UniProt Q15746); assay: KINOMEscan competition binding; conditions: compound 10.0 µM
ROCK2 (human) = ROCK2 (human) (UniProt O75116); assay: KINOMEscan competition binding; conditions: compound 10.0 µM
RIOK2 (human) = RIOK2 (human) (UniProt Q9BVS4); assay: KINOMEscan competition binding; conditions: compound 10.0 µM
[5] = molecular target: JAK1 JH2 pseudokinase (human) (UniProt P23458); assay: KINOMEscan competition binding; conditions: compound 10.0 µM
CSNK2A2 (human) = CSNK2A2 (human) (UniProt P19784); assay: KINOMEscan competition binding; conditions: compound 10.0 µM
PIM2 (human) [6] = molecular target: PIM2 (human) (UniProt Q9P1W9); assay: KINOMEscan competition binding; conditions: compound 10.0 µM
AAK1 (human) = AAK1 (human) (UniProt Q2M2I8); assay: KINOMEscan competition binding; conditions: compound 10.0 µM
RPS6KA2 KD2 (human) = RPS6KA2 KD2 (human) (UniProt Q15349); assay: KINOMEscan competition binding; conditions: compound 10.0 µM
DAPK3 (human) = DAPK3 (human) (UniProt O43293); assay: KINOMEscan competition binding; conditions: compound 10.0 µM
HIPK1 (human) = HIPK1 (human) (UniProt Q86Z02); assay: KINOMEscan competition binding; conditions: compound 10.0 µM
MAPKAPK5 (human) = MAPKAPK5 (human) (UniProt Q8IW41); assay: KINOMEscan competition binding; conditions: compound 10.0 µM
RPS6KA4 KD2 (human) = RPS6KA4 KD2 (human) (UniProt O75676); assay: KINOMEscan competition binding; conditions: compound 10.0 µM
RPS6KA6 KD2 (human) = RPS6KA6 KD2 (human) (UniProt Q9UK32); assay: KINOMEscan competition binding; conditions: compound 10.0 µM
CDK7 (human) = CDK7 (human) (UniProt P50613); assay: KINOMEscan competition binding; conditions: compound 10.0 µM
GAK (human) = GAK (human) (UniProt O14976); assay: KINOMEscan competition binding; conditions: compound 10.0 µM
CLK1 (human) = CLK1 (human) (UniProt P49759); assay: KINOMEscan competition binding; conditions: compound 10.0 µM
STK17A (human) = STK17A (human) (UniProt Q9UEE5); assay: KINOMEscan competition binding; conditions: compound 10.0 µM

PIM2 (human), sequence (Q9P1W9 whole entry, looked up): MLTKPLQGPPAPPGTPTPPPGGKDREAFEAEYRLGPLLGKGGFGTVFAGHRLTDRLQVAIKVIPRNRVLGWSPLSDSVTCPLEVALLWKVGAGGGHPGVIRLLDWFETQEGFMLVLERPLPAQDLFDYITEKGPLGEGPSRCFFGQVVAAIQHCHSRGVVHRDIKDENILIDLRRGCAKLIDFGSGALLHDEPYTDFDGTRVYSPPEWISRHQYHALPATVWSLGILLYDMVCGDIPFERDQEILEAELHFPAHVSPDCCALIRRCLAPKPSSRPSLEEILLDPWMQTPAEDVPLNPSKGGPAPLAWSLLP
PIM1 (human), sequence (P11309 whole entry, looked up): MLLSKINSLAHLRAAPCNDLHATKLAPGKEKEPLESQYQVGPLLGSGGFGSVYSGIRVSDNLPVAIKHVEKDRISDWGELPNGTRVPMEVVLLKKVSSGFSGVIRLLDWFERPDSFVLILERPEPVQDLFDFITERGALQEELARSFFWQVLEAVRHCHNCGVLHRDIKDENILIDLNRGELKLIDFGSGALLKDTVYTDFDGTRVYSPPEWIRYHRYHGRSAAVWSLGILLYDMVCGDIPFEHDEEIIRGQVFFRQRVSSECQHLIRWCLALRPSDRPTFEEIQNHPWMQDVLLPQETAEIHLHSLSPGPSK
CLK2 (human), sequence (P49760 whole entry, looked up): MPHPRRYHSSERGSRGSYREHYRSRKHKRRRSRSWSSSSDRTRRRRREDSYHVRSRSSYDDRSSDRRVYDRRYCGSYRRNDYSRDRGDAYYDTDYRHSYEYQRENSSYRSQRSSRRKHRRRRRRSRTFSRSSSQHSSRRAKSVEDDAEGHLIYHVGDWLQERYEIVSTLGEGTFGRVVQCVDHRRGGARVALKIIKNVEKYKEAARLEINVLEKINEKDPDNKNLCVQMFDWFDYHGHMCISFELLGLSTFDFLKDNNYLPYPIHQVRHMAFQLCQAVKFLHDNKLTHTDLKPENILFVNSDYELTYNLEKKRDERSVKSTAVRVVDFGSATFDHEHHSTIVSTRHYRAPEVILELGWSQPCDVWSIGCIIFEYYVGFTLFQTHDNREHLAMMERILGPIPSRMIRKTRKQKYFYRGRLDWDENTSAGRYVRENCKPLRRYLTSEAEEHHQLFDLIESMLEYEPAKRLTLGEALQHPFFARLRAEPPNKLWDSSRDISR
RPS6KA1 KD2 (human), sequence (Q15418 whole entry, looked up): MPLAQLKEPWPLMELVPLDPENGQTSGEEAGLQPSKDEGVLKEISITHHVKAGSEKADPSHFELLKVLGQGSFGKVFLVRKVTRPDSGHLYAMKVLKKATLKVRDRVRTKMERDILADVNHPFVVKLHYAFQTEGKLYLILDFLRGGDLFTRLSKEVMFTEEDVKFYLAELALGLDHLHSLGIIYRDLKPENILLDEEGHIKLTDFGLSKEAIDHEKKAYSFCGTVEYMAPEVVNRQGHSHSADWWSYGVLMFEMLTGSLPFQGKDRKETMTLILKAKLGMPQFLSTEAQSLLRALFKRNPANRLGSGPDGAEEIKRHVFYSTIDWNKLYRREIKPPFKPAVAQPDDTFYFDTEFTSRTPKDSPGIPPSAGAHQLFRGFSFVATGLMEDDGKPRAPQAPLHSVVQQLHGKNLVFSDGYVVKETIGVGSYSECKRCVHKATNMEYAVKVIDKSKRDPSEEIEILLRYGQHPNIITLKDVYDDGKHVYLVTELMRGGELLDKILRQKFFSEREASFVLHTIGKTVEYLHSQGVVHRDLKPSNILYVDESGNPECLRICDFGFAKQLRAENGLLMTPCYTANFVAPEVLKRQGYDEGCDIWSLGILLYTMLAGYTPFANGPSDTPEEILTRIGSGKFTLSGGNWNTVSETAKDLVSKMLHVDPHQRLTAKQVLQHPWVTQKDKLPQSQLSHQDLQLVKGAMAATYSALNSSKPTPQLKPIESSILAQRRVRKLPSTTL
MAP2K3 (human), sequence (P46734 whole entry, looked up): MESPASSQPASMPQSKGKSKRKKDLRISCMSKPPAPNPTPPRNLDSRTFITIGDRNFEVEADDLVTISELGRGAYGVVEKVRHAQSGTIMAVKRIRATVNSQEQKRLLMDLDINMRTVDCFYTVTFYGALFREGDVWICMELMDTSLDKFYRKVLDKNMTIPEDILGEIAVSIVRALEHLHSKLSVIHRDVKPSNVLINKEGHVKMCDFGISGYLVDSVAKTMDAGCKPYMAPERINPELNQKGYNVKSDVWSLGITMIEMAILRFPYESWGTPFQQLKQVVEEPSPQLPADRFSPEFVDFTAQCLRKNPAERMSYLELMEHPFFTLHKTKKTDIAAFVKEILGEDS
RPS6KA4 KD2 (human), sequence (O75676 whole entry, looked up): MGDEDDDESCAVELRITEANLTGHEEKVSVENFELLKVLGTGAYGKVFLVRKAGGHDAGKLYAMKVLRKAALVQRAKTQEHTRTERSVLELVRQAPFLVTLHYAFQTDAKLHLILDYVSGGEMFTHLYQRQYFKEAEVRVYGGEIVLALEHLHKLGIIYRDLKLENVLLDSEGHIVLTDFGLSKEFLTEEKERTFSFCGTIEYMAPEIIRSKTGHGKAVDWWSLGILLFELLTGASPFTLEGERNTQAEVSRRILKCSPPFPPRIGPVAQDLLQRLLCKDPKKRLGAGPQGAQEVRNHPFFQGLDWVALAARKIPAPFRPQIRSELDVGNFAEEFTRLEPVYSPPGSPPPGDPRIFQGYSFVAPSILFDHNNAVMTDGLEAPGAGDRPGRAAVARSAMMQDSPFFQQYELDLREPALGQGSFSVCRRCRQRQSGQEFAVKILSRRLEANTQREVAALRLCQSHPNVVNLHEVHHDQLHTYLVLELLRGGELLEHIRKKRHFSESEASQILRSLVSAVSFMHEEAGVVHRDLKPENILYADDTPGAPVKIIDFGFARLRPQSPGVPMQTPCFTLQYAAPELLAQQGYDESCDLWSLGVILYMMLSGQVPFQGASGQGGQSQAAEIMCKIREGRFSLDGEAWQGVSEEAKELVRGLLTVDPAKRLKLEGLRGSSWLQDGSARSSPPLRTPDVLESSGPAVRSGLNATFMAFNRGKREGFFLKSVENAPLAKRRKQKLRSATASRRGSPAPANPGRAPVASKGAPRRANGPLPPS
BMPR1B (human), sequence (O00238 whole entry, looked up): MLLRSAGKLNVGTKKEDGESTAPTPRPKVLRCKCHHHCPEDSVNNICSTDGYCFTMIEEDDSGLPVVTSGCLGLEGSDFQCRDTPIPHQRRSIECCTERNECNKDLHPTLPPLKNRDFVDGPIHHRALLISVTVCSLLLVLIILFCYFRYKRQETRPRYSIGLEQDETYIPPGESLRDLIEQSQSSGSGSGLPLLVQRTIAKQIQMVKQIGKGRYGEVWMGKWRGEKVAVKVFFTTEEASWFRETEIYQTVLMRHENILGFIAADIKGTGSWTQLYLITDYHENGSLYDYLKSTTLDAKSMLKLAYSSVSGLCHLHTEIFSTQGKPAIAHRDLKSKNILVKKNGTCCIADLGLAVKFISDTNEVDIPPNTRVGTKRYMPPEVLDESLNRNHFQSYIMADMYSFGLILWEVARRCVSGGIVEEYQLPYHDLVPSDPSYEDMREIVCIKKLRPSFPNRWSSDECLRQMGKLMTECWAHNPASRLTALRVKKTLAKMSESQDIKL
TAOK3 (human), sequence (Q9H2K8 whole entry, looked up): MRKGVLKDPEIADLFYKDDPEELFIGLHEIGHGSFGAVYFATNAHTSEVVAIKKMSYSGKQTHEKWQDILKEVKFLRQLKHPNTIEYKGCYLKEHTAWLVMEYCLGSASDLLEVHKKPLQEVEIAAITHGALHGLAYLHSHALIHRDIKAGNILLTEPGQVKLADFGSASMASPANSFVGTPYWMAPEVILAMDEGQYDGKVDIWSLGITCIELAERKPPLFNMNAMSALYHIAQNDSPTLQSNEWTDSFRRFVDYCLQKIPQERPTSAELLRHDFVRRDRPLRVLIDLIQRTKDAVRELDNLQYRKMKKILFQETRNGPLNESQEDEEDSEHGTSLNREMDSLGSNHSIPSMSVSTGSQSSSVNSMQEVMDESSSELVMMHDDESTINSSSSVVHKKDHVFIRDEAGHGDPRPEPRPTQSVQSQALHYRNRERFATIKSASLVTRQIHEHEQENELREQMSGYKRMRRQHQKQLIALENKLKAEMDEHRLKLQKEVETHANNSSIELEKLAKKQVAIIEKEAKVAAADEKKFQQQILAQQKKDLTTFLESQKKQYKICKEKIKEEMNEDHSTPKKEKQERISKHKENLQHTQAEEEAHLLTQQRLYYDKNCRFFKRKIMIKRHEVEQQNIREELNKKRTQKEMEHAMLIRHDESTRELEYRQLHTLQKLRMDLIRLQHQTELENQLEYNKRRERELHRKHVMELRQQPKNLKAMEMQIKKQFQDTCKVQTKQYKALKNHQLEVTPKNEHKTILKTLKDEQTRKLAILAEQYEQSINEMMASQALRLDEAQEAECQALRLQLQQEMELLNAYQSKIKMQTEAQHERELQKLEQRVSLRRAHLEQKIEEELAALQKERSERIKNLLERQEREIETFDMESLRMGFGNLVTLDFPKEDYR
MAP3K7 (human), sequence (O43318 whole entry, looked up): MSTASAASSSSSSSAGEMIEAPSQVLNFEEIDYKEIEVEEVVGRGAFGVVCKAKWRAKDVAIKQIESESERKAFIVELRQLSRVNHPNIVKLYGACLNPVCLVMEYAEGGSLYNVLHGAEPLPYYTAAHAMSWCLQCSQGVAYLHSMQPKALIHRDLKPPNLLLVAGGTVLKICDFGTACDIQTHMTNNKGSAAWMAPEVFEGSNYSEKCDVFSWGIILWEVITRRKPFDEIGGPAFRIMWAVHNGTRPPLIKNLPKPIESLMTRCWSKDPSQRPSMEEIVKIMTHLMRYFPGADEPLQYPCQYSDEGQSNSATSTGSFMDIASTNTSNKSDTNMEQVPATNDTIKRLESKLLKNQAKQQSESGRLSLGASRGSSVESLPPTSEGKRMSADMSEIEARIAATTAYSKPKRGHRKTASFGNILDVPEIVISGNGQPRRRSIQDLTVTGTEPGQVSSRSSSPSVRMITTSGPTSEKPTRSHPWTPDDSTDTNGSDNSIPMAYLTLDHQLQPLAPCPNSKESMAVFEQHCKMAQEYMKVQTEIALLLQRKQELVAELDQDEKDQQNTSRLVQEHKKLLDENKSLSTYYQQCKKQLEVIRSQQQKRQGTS

pIC50 (PIM1 (human) [1]): 6.89
pIC50 (PIM2 (human) [2]): 6.84
kinase still bound, per cent of control (MYLK3 (human)): 15%
kinase still bound, per cent of control (BMPR1B (human)): 19%
kinase still bound, per cent of control (DAPK1 (human)): 12%
kinase still bound, per cent of control (TAOK3 (human)): 7.4%
kinase still bound, per cent of control (PIP4K2B (human)): 34%
kinase still bound, per cent of control (RPS6KA1 KD2 (human)): 21%
kinase still bound, per cent of control (PIK3CG (human)): 2.1%
kinase still bound, per cent of control (TAOK1 (human)): 5.4%
kinase still bound, per cent of control (STK17B (human)): 0.6%
kinase still bound, per cent of control (PIM1 (human) [3]): 5.6%
kinase still bound, per cent of control (CLK3 (human)): 25%
kinase still bound, per cent of control (MAP2K2 (human)): 33%
kinase still bound, per cent of control (CSNK2A1 (human)): 20%
kinase still bound, per cent of control (CLK2 (human)): 2%
kinase still bound, per cent of control (MKNK2 (human)): 27%
kinase still bound, per cent of control (MAP2K3 (human)): 30%
kinase still bound, per cent of control (PIM3 (human)): 9%
kinase still bound, per cent of control (MAP3K7 (human)): 8.6%
kinase still bound, per cent of control [4]: 10%
kinase still bound, per cent of control (PLK4 (human)): 23%
kinase still bound, per cent of control (CAMKK1 (human)): 32%
kinase still bound, per cent of control (CLK4 (human)): 5.8%
kinase still bound, per cent of control (DAPK2 (human)): 14%
kinase still bound, per cent of control (STK24 (human)): 25%
kinase still bound, per cent of control (TLK1 (human)): 14%
kinase still bound, per cent of control (RIPK4 (human)): 5.5%
kinase still bound, per cent of control (CDK16 (human)): 18%
kinase still bound, per cent of control (MYLK (human)): 32%
kinase still bound, per cent of control (ROCK2 (human)): 21%
kinase still bound, per cent of control (RIOK2 (human)): 29%
kinase still bound, per cent of control [5]: 26%
kinase still bound, per cent of control (CSNK2A2 (human)): 19%
kinase still bound, per cent of control (PIM2 (human) [6]): 0.5%
kinase still bound, per cent of control (AAK1 (human)): 31%
kinase still bound, per cent of control (RPS6KA2 KD2 (human)): 25%
kinase still bound, per cent of control (DAPK3 (human)): 15%
kinase still bound, per cent of control (HIPK1 (human)): 0.65%
kinase still bound, per cent of control (MAPKAPK5 (human)): 32%
kinase still bound, per cent of control (RPS6KA4 KD2 (human)): 3.4%
kinase still bound, per cent of control (RPS6KA6 KD2 (human)): 27%
kinase still bound, per cent of control (CDK7 (human)): 3.2%
kinase still bound, per cent of control (GAK (human)): 29%
kinase still bound, per cent of control (CLK1 (human)): 2.4%
kinase still bound, per cent of control (STK17A (human)): 0.1%
SMILES: N=C1NC(=O)/C(=C/c2ccc(-c3ccc(C(=O)Nc4ccc(N5CCNCC5)cc4)cc3O)o2)S1
kinase still bound, per cent of control (MAPK15 (human)): 0.95%
